Literature values in patent US20040219231A1, “Production of concentrated biocidal solutions” (priority 2000, published 2004).

Tests used:
[1] = not given; remark: listed apart in the source

Row | Compound | solubility in water | Vapor Pressure (25° C.) [1]
1 | CC1(C)C(=O)N(Cl)C(=O)N1Br [BCDMH, 1,3-bromochloro-5,5-dimethylhydantoin] | around 0.15% | 
2 | BrBr [Bromine (Br2), Bromine] |  | 214 mm
3 | ClBr [Bromine Chloride (BrCl), Bromine Chloride] |  | 1800 mm
